Results reported in PubChem BioAssay (NCI).
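Growth conditions: 96-well plates. Treatment: test compound, 48 hours, 5 concentrations. Analysis: linear interpolation between bracketing concentrations; unreached endpoints set to highest concentration. The concentration for 50% growth inhibition is given as GI50. The concentration for full growth arrest is given as TGI.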

Experiments:
Assay in all cases: NCI-60 cell line screen, 48 h
786-0 renal = system: 786-0 renal
A498 renal = system: A498 renal
A549 NSCLC = system: A549 NSCLC
ACHN renal = system: ACHN renal
BT-549 breast = system: BT-549 breast
CAKI-1 renal = system: CAKI-1 renal
COLO 205 colon = system: COLO 205 colon
DU-145 prostate = system: DU-145 prostate
EKVX NSCLC = system: EKVX NSCLC
HCC-2998 colon = system: HCC-2998 colon
HCT-116 colon = system: HCT-116 colon
HCT-15 colon = system: HCT-15 colon
HL-60(TB) leukemia = system: HL-60(TB) leukemia
HOP-62 NSCLC = system: HOP-62 NSCLC
HOP-92 NSCLC = system: HOP-92 NSCLC
HS 578T breast = system: HS 578T breast
HT29 colon = system: HT29 colon
IGROV1 ovarian = system: IGROV1 ovarian
K-562 leukemia = system: K-562 leukemia
KM12 colon = system: KM12 colon
LOX IMVI melanoma = system: LOX IMVI melanoma
M14 melanoma = system: M14 melanoma
MALME-3M melanoma = system: MALME-3M melanoma
MCF7 breast = system: MCF7 breast
MDA-MB-231 breast = system: MDA-MB-231 breast
MDA-MB-435 = system: MDA-MB-435
MOLT-4 leukemia = system: MOLT-4 leukemia
NCI-H226 lung = system: NCI-H226 lung
NCI-H23 lung = system: NCI-H23 lung
NCI-H460 lung = system: NCI-H460 lung
NCI-H522 lung = system: NCI-H522 lung
NCI/ADR-RES ovarian = system: NCI/ADR-RES ovarian
OVCAR-3 ovarian = system: OVCAR-3 ovarian
OVCAR-4 ovarian = system: OVCAR-4 ovarian
OVCAR-5 ovarian = system: OVCAR-5 ovarian
OVCAR-8 ovarian = system: OVCAR-8 ovarian
PC-3 prostate = system: PC-3 prostate
RPMI-8226 leukemia = system: RPMI-8226 leukemia
RXF 393 renal = system: RXF 393 renal
SF-268 CNS = system: SF-268 CNS
SF-295 CNS = system: SF-295 CNS
SF-539 CNS = system: SF-539 CNS
SK-MEL-2 melanoma = system: SK-MEL-2 melanoma
SK-MEL-28 melanoma = system: SK-MEL-28 melanoma
SK-MEL-5 melanoma = system: SK-MEL-5 melanoma
SK-OV-3 ovarian = system: SK-OV-3 ovarian
SN12C renal = system: SN12C renal
SNB-19 CNS = system: SNB-19 CNS
SNB-75 CNS = system: SNB-75 CNS
SW-620 colon = system: SW-620 colon
T-47D breast = system: T-47D breast
TK-10 renal = system: TK-10 renal
U251 CNS = system: U251 CNS
UACC-257 melanoma = system: UACC-257 melanoma
UACC-62 melanoma = system: UACC-62 melanoma
UO-31 renal = system: UO-31 renal

Fc1c[c-]c(-c2ccccn2)c(F)c1.[CH3-].[Pt+2].c1ccc(P(C[PH+](c2ccccc2)c2ccccc2)c2ccccc2)cc1
GI50 (786-0 renal): 0.75 µM | TGI (786-0 renal): 1.65 µM | GI50 (A498 renal): 0.712 µM | TGI (A498 renal): 1.58 µM | GI50 (A549 NSCLC): 0.393 µM | TGI (A549 NSCLC): 4.7 µM | GI50 (ACHN renal): 0.792 µM | TGI (ACHN renal): 1.49 µM | GI50 (BT-549 breast): 0.492 µM | TGI (BT-549 breast): 1.49 µM | GI50 (CAKI-1 renal): 0.869 µM | TGI (CAKI-1 renal): 1.96 µM | GI50 (COLO 205 colon): 0.485 µM | TGI (COLO 205 colon): 2.07 µM | GI50 (DU-145 prostate): 1.06 µM | TGI (DU-145 prostate): 6.47 µM | GI50 (EKVX NSCLC): 0.495 µM | TGI (EKVX NSCLC): 1.96 µM | GI50 (HCC-2998 colon): 0.484 µM | TGI (HCC-2998 colon): 1.29 µM | GI50 (HCT-116 colon): 0.494 µM | TGI (HCT-116 colon): 1.29 µM | GI50 (HCT-15 colon): 0.975 µM | TGI (HCT-15 colon): 2.25 µM | GI50 (HL-60(TB) leukemia): 0.38 µM | TGI (HL-60(TB) leukemia): 1.56 µM | GI50 (HOP-62 NSCLC): 0.932 µM | TGI (HOP-62 NSCLC): 3.71 µM | GI50 (HOP-92 NSCLC): 0.512 µM | TGI (HOP-92 NSCLC): 1.34 µM | GI50 (HS 578T breast): 0.864 µM | TGI (HS 578T breast): 2.9 µM | GI50 (HT29 colon): 0.5 µM | TGI (HT29 colon): 3.73 µM | GI50 (IGROV1 ovarian): 0.47 µM | TGI (IGROV1 ovarian): 1.86 µM | GI50 (K-562 leukemia): 0.365 µM | TGI (K-562 leukemia): 6.95 µM | GI50 (KM12 colon): 0.421 µM | TGI (KM12 colon): 1.25 µM | GI50 (LOX IMVI melanoma): 0.539 µM | TGI (LOX IMVI melanoma): 1.28 µM | GI50 (M14 melanoma): 0.71 µM | TGI (M14 melanoma): 2.31 µM | GI50 (MALME-3M melanoma): 0.342 µM | TGI (MALME-3M melanoma): 0.919 µM | GI50 (MCF7 breast): 0.577 µM | TGI (MCF7 breast): 2.98 µM | GI50 (MDA-MB-231 breast): 0.724 µM | TGI (MDA-MB-231 breast): 1.78 µM | GI50 (MDA-MB-435): 0.795 µM | TGI (MDA-MB-435): 2.08 µM | GI50 (MOLT-4 leukemia): 0.825 µM | TGI (MOLT-4 leukemia): 5.81 µM | GI50 (NCI-H226 lung): 0.559 µM | TGI (NCI-H226 lung): 2.09 µM | GI50 (NCI-H23 lung): 0.563 µM | TGI (NCI-H23 lung): 1.99 µM | GI50 (NCI-H460 lung): 0.591 µM | TGI (NCI-H460 lung): 1.54 µM | GI50 (NCI-H522 lung): 0.96 µM | TGI (NCI-H522 lung): 3.16 µM | GI50 (NCI/ADR-RES ovarian): 2.53 µM | TGI (NCI/ADR-RES ovarian): 11.9 µM | GI50 (OVCAR-3 ovarian): 0.411 µM | TGI (OVCAR-3 ovarian): 1.2 µM | GI50 (OVCAR-4 ovarian): 0.61 µM | TGI (OVCAR-4 ovarian): 3.71 µM | GI50 (OVCAR-5 ovarian): 0.98 µM | TGI (OVCAR-5 ovarian): 2.54 µM | GI50 (OVCAR-8 ovarian): 0.63 µM | TGI (OVCAR-8 ovarian): 5.76 µM | GI50 (PC-3 prostate): 0.373 µM | TGI (PC-3 prostate): 1.53 µM | GI50 (RPMI-8226 leukemia): 0.262 µM | TGI (RPMI-8226 leukemia): 1.87 µM | GI50 (RXF 393 renal): 0.702 µM | TGI (RXF 393 renal): 1.49 µM | GI50 (SF-268 CNS): 0.86 µM | TGI (SF-268 CNS): 6.88 µM | GI50 (SF-295 CNS): 0.708 µM | TGI (SF-295 CNS): 1.82 µM | GI50 (SF-539 CNS): 0.838 µM | TGI (SF-539 CNS): 1.62 µM | GI50 (SK-MEL-2 melanoma): 0.695 µM | TGI (SK-MEL-2 melanoma): 1.89 µM | GI50 (SK-MEL-28 melanoma): 0.512 µM | TGI (SK-MEL-28 melanoma): 1.52 µM | GI50 (SK-MEL-5 melanoma): 0.714 µM | TGI (SK-MEL-5 melanoma): 1.37 µM | GI50 (SK-OV-3 ovarian): 0.816 µM | TGI (SK-OV-3 ovarian): 6.03 µM | GI50 (SN12C renal): 0.502 µM | TGI (SN12C renal): 1.77 µM | GI50 (SNB-19 CNS): 0.403 µM | TGI (SNB-19 CNS): 1.32 µM | GI50 (SNB-75 CNS): 0.967 µM | TGI (SNB-75 CNS): 4.14 µM | GI50 (SW-620 colon): 0.52 µM | TGI (SW-620 colon): 1.49 µM | GI50 (T-47D breast): 0.474 µM | TGI (T-47D breast): 3.27 µM | GI50 (TK-10 renal): 0.991 µM | TGI (TK-10 renal): 3.39 µM | GI50 (U251 CNS): 0.347 µM | TGI (U251 CNS): 1.06 µM | GI50 (UACC-257 melanoma): 0.696 µM | TGI (UACC-257 melanoma): 2.93 µM | GI50 (UACC-62 melanoma): 0.545 µM | TGI (UACC-62 melanoma): 1.89 µM | GI50 (UO-31 renal): 0.731 µM | TGI (UO-31 renal): 1.41 µM
